From US7838234B2, “Methods for determining cancer resistance to histone deacetylase inhibitors” (Pharmacyclics, Inc., priority 2007, dated 2010)

Key:
[1] = test system: HDACi-responsive biomarker genes; experiment: Taqman mRNA levels of HDACi-responsive biomarker genes in mouse tissues after dosing; assay type: in vivo; details: mice, 50 mg/kg, 3 and 8 hours after administration, 13 tissues
Description: RNA expression profiles were determined using on a GE-Codelink Mouse Unisetl 10K oligonucleotide arrays in duplicate. Each treated sample was normalized to the corresponding vehicle control. In order to validate the expression profile of HDADi-responsive genes identified by the gene expression array assays, Taqman gene expression assays were performed using Applied Biosystems Inc. assays. One-step RT-PCR was carried out in triplicate on 25 ng of total RNA from each sample on a ABI PRISM 7700 instrument. The mRNA levels for each gene were normalized to the amount of RNA in the well as measured in parallel using Ribogreen (Molecular Probes). The treated samples were then normalized to the vehicle control at that time point. We then determined the in vivo expression levels for five of the RDACi-responsive biomarker genes in various tissues following 3 hours or 8 hours following administration of PCI-24781 (50 mg/kg). A Taqman assay was performed to determine mRNA expression levels in brain, colon, kidney, liver, stomach, ovary, uterus, mammary, muscle, heart, lung, spleen, and pancreas. The issue distribution pattern was very reproducible across the biomarker set.

[2] = test system: primary colorectal tumors (colon carcinoma biopsies); experiment: Soft agar chemosensitivity assay (tritiated thymidine incorporation) of primary colorectal tumors ex vivo; assay type: cell-based, human
Description: The method used soft agar chemosensitivity assays in which primary human tumors were exposed in culture to PCI-24781. Either a trititated thymidine or alamar blue assay was then used to estimate the percentage of resistance to PCI-24781. For example in the trititated thymidine assay, sensitive tumor cells affected by the drug divided less and therefore incorporated less thymidine, whereas resistant tumor cells continued to grow and divide and therefore incorporated more thymidine into their DNA.
Primary colorectal cancer (CRC) samples were obtained from patient biopsies (Table 2). Viable tumor cells were plated and cultured in soft agar as described in Kern et al. (1990), J. Natl. Cancer Inst., 82:582-588, and were treated with a range of PCI-24781 concentrations (0.01-2 μM). Tritiated thymidine was added to the culture after 3 days of exposure to the drug, and the amount of radioactivity incorporated into the cells after a further 2 days was quantified. The percentage of cell growth inhibition (% GI) was calculated by comparing the treated cells to the control cells, and from these growth profiles the tumors were classified as either sensitive or resistant based on deviation from the median profile.
(§1) Subsequently, primary human tumor samples were obtained and viable tumor cells were plated in soft agar and treated with the HDAC inhibitor PCI-24781. Tritiated thymidine was added after 3 days, and 2 days later the radioactivity incorporated into the DNA was quantified. The tumors were then classified as either resistant (EDR: Extreme Drug Resistance), sensitive (LDR) or intermediate (IDR) based on deviation from the median profile (Oncotech, Inc. Tustin, Calif.).

[3] = test system: primary colon tumor cells from newly diagnosed, naive patients; experiment: Ex vivo growth inhibition of primary colon tumor cells from newly diagnosed, naive patients; assay type: cell-based, human; details: ex vivo cultured cells from twelve patients, FIG. 11A
[4] = test system: Multiple Myeloma primary tumor cells; experiment: Soft agar tritiated thymidine assay of primary human tumor samples, EDR/IDR/LDR classification: multiple myeloma; assay type: cell-based
Description: as §1, with “Calif.). As predicted based on the HDACi responsive biomarker gene profiles hematopoietic tumors had the lowest proportion of resistant (EDR) tumors, and colon the most (38%). Among the solid tumors, ovarian had the lowest proportion of resistant tumors, consistent with the high HDACi-biomarker responsiveness of this tissue.” for “Calif.).”

[5] = test system: advanced metastatic colon tumor cells; experiment: Ex vivo growth inhibition of advanced metastatic colon tumor cells; assay type: cell-based, human; details: in a number of cases, FIG. 11B
[6] = test system: Ovarian primary tumor cells; experiment: Soft agar tritiated thymidine assay of primary human tumor samples, EDR/IDR/LDR classification: ovarian; assay type: cell-based
Description: as §1, with “Calif.). As predicted based on the HDACi responsive biomarker gene profiles hematopoietic tumors had the lowest proportion of resistant (EDR) tumors, and colon the most (38%). Among the solid tumors, ovarian had the lowest proportion of resistant tumors, consistent with the high HDACi-biomarker responsiveness of this tissue.” for “Calif.).”

AML primary tumor cells = experiment: Soft agar tritiated thymidine assay of primary human tumor samples, EDR/IDR/LDR classification: AML; assay type: cell-based
Description: as §1, with “Calif.). As predicted based on the HDACi responsive biomarker gene profiles hematopoietic tumors had the lowest proportion of resistant (EDR) tumors, and colon the most (38%). Among the solid tumors, ovarian had the lowest proportion of resistant tumors, consistent with the high HDACi-biomarker responsiveness of this tissue.” for “Calif.).”

[7] = test system: acetylated tubulin in PBMC; experiment: Tubulin acetylation in peripheral blood mononuclear cells of treated mice (immunoblotting); assay type: in vivo, mouse; details: female BALB/c mice, 50 mg/kg IV, 0.25-8 hours after dosing
Description: In brief, female BALB/c mice were injected IV with 50 mg/kg PCI-24781 or vehicle. Blood and various tissues were collected at 0.25, 0.5, 1, 2, 3 & 8 hours after dosing. For acetylated histone and tubulin detection, organs/tissues were pooled for each vehicle and drug-treated organ group. RNA and protein were extracted from the samples with the PARIS Protein and RNA Isolation System (Ambion). Levels of acetylated and total α-tubulin & histones were evaluated by immunoblotting.

[8] = test system: HDACi resistance biomarker genes in colorectal tumor cells; experiment: Microarray gene expression profiling of colorectal tumor cells treated with PCI-24781 or untreated; assay type: cell-based, human; details: PCI-24781 2 μM vs untreated
Description: After determining tumor sensitivity to PCI-24781, gene expression profiles were determined for resistant and sensitive tumors that were treated with PCI-24781 (2 μM) or untreated. Total RNA was isolated using Qiagen procedures (Qiagen, Inc., Valencia, Calif.) and fluorescent probes were prepared and hybridized to Codelink Human Whole Genome oligonucleotide microarrays containing ˜55,000 unique probes (GE Healthcare Bio-Sciences Corp., Piscataway, N.J.) according to the manufacturer's instructions. The microarrays were scanned in a GenePix 4000B scanner (Molecular Devices Corporation, Sunnyvale Calif.). The images were processed with Codelink software and the exported data was analyzed as follows.
The median-normalized microarray data were imported into Genespring software (Agilent), and principal component analysis (PCA) and hierarchical clustering analysis were performed. We looked for consistent results from multiple analysis methods to provide additional confidence in our results. For multiple hypothesis correction, we used the q-values approach for false discovery rates (FDR) as described in Storey et al. (2003), Proc. Nat. Acad. Sci. USA, 100:9440-9445. As a second analytical approach we adopted the Bayesian ANOVA approach described in Ishwaran et al. (2003), J. Amer. Stat. Assoc., 98:438-455. […]

[9] = test system: Glioblastoma primary tumor cells; experiment: Soft agar tritiated thymidine assay of primary human tumor samples, EDR/IDR/LDR classification: glioblastoma; assay type: cell-based
Description: as §1, with “Calif.). As predicted based on the HDACi responsive biomarker gene profiles hematopoietic tumors had the lowest proportion of resistant (EDR) tumors, and colon the most (38%). Among the solid tumors, ovarian had the lowest proportion of resistant tumors, consistent with the high HDACi-biomarker responsiveness of this tissue.” for “Calif.).”

CN(C)Cc1c(C(=O)NCCOc2ccc(C(=O)NO)cc2)oc2ccccc12 [PCI-24781]
tissue with highest induction of mRNA of five HDACi-responsive biomarker genes [1]: Ovary showed the highest level of induction, followed by uterus | % Resistance [2]: 38% | Intermediate IDR (number of tumors) ([2]; of 24 tumors): 3 | Resistant EDR (number of tumors) ([2]; of 24 tumors): 9 | Sensitive LDR (number of tumors) ([2]; of 24 tumors): 12 | sensitivity to growth inhibition [3]: all sensitive | % Resistance [4]: 33% | Intermediate IDR (number of tumors) ([4]; of 6 tumors): 0 | Resistant EDR (number of tumors) ([4]; of 6 tumors): 2 | Sensitive LDR (number of tumors) ([4]; of 6 tumors): 4 | sensitivity to growth inhibition [5]: resistant | % Resistance [6]: 25% | Intermediate IDR (number of tumors) ([6]; of 12 tumors): 4 | Resistant EDR (number of tumors) ([6]; of 12 tumors): 3 | Sensitive LDR (number of tumors) ([6]; of 12 tumors): 5 | % Resistance (AML primary tumor cells): 10% | Intermediate IDR (number of tumors) (AML primary tumor cells; of 10 tumors): 4 | Resistant EDR (number of tumors) (AML primary tumor cells; of 10 tumors): 1 | Sensitive LDR (number of tumors) (AML primary tumor cells; of 10 tumors): 5 | tubulin acetylation levels in PBMC [7]: increases | effect of treatment on expression of the identified resistance biomarker genes [8]: not altered | % Resistance [9]: 29% | Intermediate IDR (number of tumors) ([9]; of 7 tumors): 1 | Resistant EDR (number of tumors) ([9]; of 7 tumors): 2 | Sensitive LDR (number of tumors) ([9]; of 7 tumors): 4
